Data taken from ChEMBL document CHEMBL3988442, “University of Dundee, Small-Polar-MMV Screening Library” (2021).
Several values for one entry are separate records, joined by “and”; a condition that tells them apart may be missing. Equal values may be shown once.

Experiments:
[1] = tested on: Leishmania donovani; assay: Leishmania intramacrophage assay; format: functional, organism-based; conditions: for IC50: Leishmania donovani
[2] = molecular target: ClpP1P2 (Mycobacterium tuberculosis (strain ATCC 25618 / H37Rv), UniProt P9WPC3+P9WPC5); assay: in vitro assay to detect presence of AMC directly proportional to the activity of ClpP1P2. GHDDI collaboration.; format: functional
[3] = tested on: Plasmodium falciparum; assay: Calibr Malaria Delayed Death Assay SOP; format: functional, organism-based; conditions: for IC50: Plasmodium falciparum
[4] = microbe, parasite or virus in culture; conditions: Mycobacterium tuberculosis, 96 h, read-out: pIC50 (converted)
[5] = microbe, parasite or virus in culture; conditions: Mycobacterium tuberculosis, 72 h, read-out: pIC50 (converted)

ClpP1P2, sequence (P9WPC5 whole entry): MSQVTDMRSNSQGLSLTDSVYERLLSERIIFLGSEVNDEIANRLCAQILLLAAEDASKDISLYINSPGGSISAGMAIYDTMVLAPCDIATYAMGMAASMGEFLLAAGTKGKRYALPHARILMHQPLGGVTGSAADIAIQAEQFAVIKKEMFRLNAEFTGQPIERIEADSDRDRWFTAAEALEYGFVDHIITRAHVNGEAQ
ClpP1P2, sequence (P9WPC3 whole entry): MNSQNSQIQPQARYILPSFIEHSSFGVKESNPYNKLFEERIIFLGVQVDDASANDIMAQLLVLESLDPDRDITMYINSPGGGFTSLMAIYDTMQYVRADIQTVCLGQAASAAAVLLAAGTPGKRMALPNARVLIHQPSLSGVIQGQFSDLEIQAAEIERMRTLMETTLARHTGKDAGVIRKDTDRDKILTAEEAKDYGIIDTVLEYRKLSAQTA

Compound	IC50 [1] [µM]	also measured
CC1CCCN(Cc2coc(-c3cccc(F)c3)n2)C1 (stereo not drawn)	> 50.1	
OC(c1ccccc1)C1CCN(Cc2csc(-c3ncccn3)n2)CC1 (stereo not drawn)	> 50.1	
CC(C)CNc1nc2c(cc1C(=O)NCC1CC1)CCNCC2	17.7	IC50 [2]: > 100 µM; pIC50 [1]: 4.725
CN1CCC(N(Cc2ccco2)S(=O)(=O)c2ccc(Br)cc2Cl)CC1	20.9	pIC50 [1]: 4.643; pIC50 [3]: 6.36; IC50 [3]: 0.473 µM
CN1CCN(CC(NCc2ccc(F)c(F)c2)c2ccccc2)CC1 (stereo not drawn)	11.3	IC50 [4]: > 50.1 µM; IC50 [5]: 17.1 µM; pIC50 [3]: 6.278; IC50 [3]: 0.618 µM
COc1cccc(CNC(CN2CCN(C)CC2)c2ccccc2)c1 (stereo not drawn)	22	pIC50 [1]: 4.672; pIC50 [3]: 6.596; IC50 [3]: 0.308 µM
Cc1ccc(CNC(CN2CCN(C)CC2)c2ccccc2)cc1 (stereo not drawn)	12.8	pIC50 [1]: 5.055; pIC50 [3]: 6.589; IC50 [3]: 0.247 µM
Cc1cccc(CNC(CN2CCN(C)CC2)c2ccccc2)c1 (stereo not drawn)	6.36	pIC50 [1]: 5.046; pIC50 [3]: 6.605; IC50 [3]: 0.185 µM
COc1c(F)cc(-c2cccc3c2OC(CN)C3)cc1F (stereo not drawn)	19.2	IC50 [4]: 22.9 µM; pIC50 [1]: 4.693; IC50 [5]: 36.7 µM
NCC1CCCN(c2nc(-c3ccccc3)nc3c2CCNCC3)C1 (stereo not drawn)	27.2	IC50 [4]: 17.7 µM; IC50 [5]: 11.3 µM
Cc1ccc2[nH]c(-c3cn(C4CCNCC4)nn3)nc2c1C	20.4	pIC50 [1]: 4.614; pIC50 [3]: 6.454; IC50 [3]: 0.325 µM
c1ccc(C2CCCN(c3ncnc4c3CCNC4)CC2)cc1 (stereo not drawn)	18.1	IC50 [4]: > 50.1 µM; pIC50 [1]: 4.655; IC50 [5]: > 50.1 µM
COc1cc(C)c(-c2ccc(F)c3c2OC(CN)C3)cc1C (stereo not drawn)	7.27	IC50 [4]: > 50.1 µM; pIC50 [1]: 4.996; IC50 [5]: > 50.1 µM
Cc1nc(C2CCN(C)CC2)cc(N2CCOc3ccc(Cl)cc3C2)n1	14.9	IC50 [4]: > 50.1 µM; pIC50 [1]: 4.959; IC50 [5]: 32.6 µM
CC(C)c1nccc(C2(c3ccccc3Cl)CCNCC2)n1	26.3	pIC50 [3]: 6.087; IC50 [3]: 0.789 µM
Cc1cc2nc(-c3cn(C4CCNCC4)nn3)[nH]c2cc1C	21.2	pIC50 [1]: 4.64; pIC50 [3]: 6.549; IC50 [3]: 0.273 µM
COCCN(Cc1sccc1C)c1nc(C)nc2sccc12	> 50.1	
C1CCc2nnc(CNc3nc(C4CC4)nc4c3CCNCC4)n2CC1	> 50.1	
CN(CCc1noc(C2CC2)n1)C(=O)CN1C(=O)COc2ccccc21	> 50.1	
CCOCCN(CCOCC)c1nc(C)nc2sccc12	> 50.1	
O=C(C1CNCCO1)N1CCCC(c2ccccc2)(c2ccccc2)C1 (stereo not drawn)	11.6	pIC50 [1]: 4.781; pIC50 [3]: 6.124; IC50 [3]: 0.975 µM
c1nc(CCNc2nc(C3CC3)nc3c2CCNCC3)c[nH]1	> 50.1	
Cc1cc(C(F)(F)F)nc(N2CCN(Cc3nccn3C)CC2)n1	> 50.1	
Cc1nccn1CC1CCCN(C(=O)Cc2ccsc2)C1 (stereo not drawn)	> 50.1	
Cc1ccc(-c2nc(CNC(C)CCO)[nH]c2-c2ccccn2)cc1 (stereo not drawn)		pIC50 [1]: 4.821 and 4.459; pIC50 [3]: 5.824; IC50 [3]: 1.25 µM
Cc1sc2nc(CCN)nc(N3CCC(N4CCCC4)CC3)c2c1C	> 50.1	

Compound	IC50 [1] [µM]	also measured
CCc1nnc(CN2CCN(c3cccc(OC)c3)C(=O)C2)o1	> 50.1	
COc1cc(OC)cc(-c2cccc3c2OC(CN)C3)c1 (stereo not drawn)	18.3	IC50 [4]: 20 µM; pIC50 [1]: 4.734; IC50 [5]: 1.33 µM
COCCNc1nc2c(c(NCCc3cccs3)n1)CCNCC2	24.2	
COCc1noc(CNc2nc(C3CCCC3)nc3c2CCNCC3)n1	> 50.1	
O=c1[nH]cccc1-c1nccc(C2(c3ccccc3Cl)CCNCC2)n1	> 50.1	
COCCN(Cc1cnn(C)c1)c1nc(C)nc2sccc12	> 50.1	
O=C1NCCCC12CCN(c1nc3c(c(C(F)(F)F)n1)CCCC3)C2 (stereo not drawn)	> 50.1	
Cc1c(C(=O)N2CCC(N3CCCCC3)CC2)n(C)c2ccc(Cl)cc12	13.5	pIC50 [1]: 4.818; pIC50 [3]: 6.009; IC50 [3]: 1.07 µM
Cc1sc2nc(CCN)nc(N3CC(N4CCCCC4)C3)c2c1C	23.7	
CCCN(CCOC)c1nc(C)nc2sccc12	> 50.1	
COc1ccc(-c2cccc3c2OC(CN)C3)cc1F (stereo not drawn)	22.2	IC50 [4]: 34.7 µM; pIC50 [1]: 4.618; IC50 [5]: > 50.1 µM
CC(=O)NCc1nnc2n1CCN(c1nc(C)nc3sccc13)CC2	> 50.1	
Cc1nc(NCc2noc(C3CCCO3)n2)c2ccsc2n1 (stereo not drawn)	> 50.1	
CC(C)n1ccnc1C1CCCN(c2ccccn2)C1 (stereo not drawn)	> 50.1	
CCc1cc(N2CCCNCC2)n2nc(C)c(C)c2n1	> 50.1	
Clc1ccccc1C1(c2ccnc(CC3CC3)n2)CCNCC1		pIC50 [1]: 4.801 and 4.355; pIC50 [3]: 6.68; IC50 [3]: 0.268 µM
NCC1CN(c2nc(-c3ccccc3)nc3c2CCNCC3)CCO1 (stereo not drawn)	> 50.1	
Clc1ccccc1C1(c2ccnc(-c3ncccn3)n2)CCNCC1	> 50.1	
Clc1ccccc1C1(c2ccnc(-c3ccncc3)n2)CCNCC1	18.6	pIC50 [1]: 4.623; pIC50 [3]: 6.636; IC50 [3]: 0.264 µM
Cc1cnc(N2CCCC3(CCCN(C)C3)C2)nc1 (stereo not drawn)	> 50.1	
Cn1ccc(C(=O)N2CCCC(Cc3cccc4ncccc34)C2)n1 (stereo not drawn)	> 50.1	
CN1CCCC(Cc2cncc(Br)c2)CC1 (stereo not drawn)	> 50.1	
CCC1CCCN(Cc2nc(N)c3ccccc3n2)C1 (stereo not drawn)	> 50.1	
c1cnc(-c2nc(CN3CCCC(N4CCCC4)C3)cs2)nc1 (stereo not drawn)	> 50.1	
c1cnc(-c2nc(CN3CCCN(Cc4cccs4)CC3)cs2)nc1	> 50.1	
CC(=O)NC1CCCN(Cc2csc(-c3ncccn3)n2)C1 (stereo not drawn)	> 50.1	

Compound	IC50 [1] [µM]	also measured
NC(=O)C1CCN(Cc2csc(-c3ncccn3)n2)CC1	> 50.1	
CC(O)CN1CCC(CNCc2cccc(OC(F)(F)F)c2)CC1 (stereo not drawn)	16.8	pIC50 [1]: 4.85; pIC50 [3]: 6.17; IC50 [3]: 0.909 µM
CC(O)CN1CCC(CNCc2ccc(OC(F)(F)F)cc2)CC1 (stereo not drawn)	9.27	pIC50 [1]: 5.001; pIC50 [3]: 5.989; IC50 [3]: 0.959 µM
CC(C(=O)NCc1ccnc(N(C)C)c1)n1cccn1 (stereo not drawn)	> 50.1	
CC(NCc1ccsc1)c1ccc2c(c1)NC(=O)CO2 (stereo not drawn)	> 50.1	
C=C(C)CN1CCC(C(=O)c2cc(F)ccc2F)CC1	> 50.1	
CC(Cn1cccn1)NC(=O)NCCc1cccnc1 (stereo not drawn)	> 50.1	
O=C(NCc1ccccn1)C1=NN(c2ccccc2)C(=O)CN1	> 50.1	
COc1cccc(CNCC2CN(C)CCO2)c1 (stereo not drawn)	> 50.1	
COc1ccc(CNc2cnn(C)c(=O)c2Cl)cc1	> 50.1	
Cc1cc(CN2CCCC(Cn3cncn3)C2)on1 (stereo not drawn)	> 50.1	
CC(C)OCCN1CCC(N2CCN(C)C2=O)CC1	> 50.1	
CC(NC(=O)NCCCn1ccnc1)c1ccc2c(c1)OCCCO2 (stereo not drawn)	> 50.1	
Cn1nccc1C1CCN(Cc2csc(-c3ncccn3)n2)CC1	> 50.1	
c1cnc(-c2nc(CN3CCC(c4ccn[nH]4)CC3)cs2)nc1	> 50.1	
CCCC1CCCN(Cc2csc(-c3cnn(C)c3)n2)CC1 (stereo not drawn)	> 50.1	
CCCc1nc(CN2CCCC2Cn2cncn2)cs1 (stereo not drawn)	> 50.1	
O=C(CCc1cscn1)N1CCCC(n2ccnc2)C1 (stereo not drawn)	> 50.1	
Cc1ccc(N2CCCC(NCc3cscn3)C2)nn1 (stereo not drawn)	> 50.1	
c1cnc(-c2nc(CN3CCCC(Cn4cncn4)C3)cs2)nc1 (stereo not drawn)	> 50.1	
CCOc1ccc(CNCC(O)c2ccccc2)cc1Cl (stereo not drawn)	29.6	
O=C(c1c[nH]cn1)N1CCC(F)(F)C2(CCN(c3cccc(F)c3)C2)C1 (stereo not drawn)	> 50.1	IC50 [4]: > 50.1 µM; IC50 [5]: > 50.1 µM
CC(C)c1nc(-c2cc(C(=O)NCCN(C)C)c3ccccn23)cs1.O=C(O)C(F)(F)F	18.9	IC50 [4]: > 50.1 µM; pIC50 [1]: 4.846; IC50 [5]: > 50.1 µM
Cn1cc(CN2CCC(F)(F)C3(CCN(c4cnccn4)C3)C2)cn1 (stereo not drawn)	> 50.1	IC50 [4]: > 50.1 µM; IC50 [5]: > 50.1 µM
